In patent US20250090510A1, “eIF4G1-eIF1 INHIBITORS AND USE THEREOF” (YEDA RESEARCH AND DEVELOPMENT CO. LTD., priority 2022, published 2025):

Columns and labels:
[1] = tested on: Plasmodium falciparum NF54 strain; test: Parasitemia assay in blood cultures; format: cell-based; settings: i14G1-10 20 uM, i14G1-12 10 uM; 1 hour, wash, measured 24 hours later
Experimental: FIGS. 8A-B: (8A) Bar graph of percent parasitemia in blood samples treated with i14G1-10 (20 μM) and i14G1-12 (10 μM) for 1 hour. DMSO treatment was used as a negative control. *=pVal; <0.05, ***=pVal<0.001 (8B) Photograph of a western blot and corresponding gel total protein staining of P. falciparum blood cultures treated with the inhibitors with or without the addition of puromycin. DMSO treatment and untreated cultures were used as a negative control.
From the same flask with -3-4% parasitemia, parasites were plated at 5 ml/well into six well-plates. To the trophozoite stage of development, i14G1-10, i14G1-12, or DMSO, were added and incubated at 37° C. with shaking. After one hour of incubation, from each sample, 1 ml of culture was taken. […]
The next day, the parasitemia (the number of iRBCs divided by the number of total RBCs) was measured by microscopy. The gold-standard method for identifying and quantifying malaria parasites as disclosed in Murphy et al., 2013, “Malaria diagnostics in clinical trials.” Am J Trop Med Hyg., 89(5):824-39, herein incorporated by reference in its entirety, was used. […] Infected RBCs were quantified by eye. No less than 30 fields of view were counted to find the final parasitemia percent.
Parasitaemia levels were measured 24 hours later.

HEK293T cells = test: Ribo-seq and TI-seq translation efficiency analysis; format: cell-based, human; settings: i14G1-10 20 μM, i14G1-12 10 μM; 3 h
Experimental: FIGS. 4A-L: The effect eIF1-eIF4G1 inhibition by i14G1-10 or i14G1-12 on global translation is linked to start codon stringency. (4A) HEK293T cells were treated with DMSO, i14G1-10 (20 μM), and […] (10 μM) for 3 h and then ribosome foot printing libraries were prepared, sequenced and analyzed as described in the scheme. The presented graphs show meta-gene analysis of the distribution of normalized reads in the coding region (CDS) and 5′UTR of all analyzed genes in DMSO (black), i14G1-10 (blue), and i14G1-12 (red). (4B) Summary of the number of genes whose ribosomal occupancy was affected (fold change, […]) or unaffected in coding regions (CDS) (left) and 5′UTR (right) in i14G1-10 or i14G1-12 samples. […] (4E) Analysis of the nucleotide context of the annotated start codon of i14G1-10 and i14G1-12 differentially translated mRNAs using the STREME motif discovery algorithm. (4F) The translation efficiency of eIF1 in DMSO, i14G1-10 and i14G1-12 samples calculated from the Ribo-seq data. The weak AUG context of eIF1 is shown above. […] (4I) HEK293T cells were transfected with a firefly luciferase reporter gene driven by either by AUG or near cognate start codon, i.e., ACG, CUG, GUG, and UUG. The Renilla luciferase reporter gene was also co-transfected and served as a normalizing control. The near cognate start codon activities in DMSO control and i14G1-10 and i14G1-12 treated cells are presented as a percentage of AUG activity. The data are shown as mean±SEM, n=5. the asterisks denote statistically significant difference compared to DMSO, according to Student's t-tests (one-tailed, paired). *p<0.05; **p<0.01. (4J) Scatter plots showing the translation efficiencies correlations (R2 >0.9) of all analyzed genes between the two independent replicate experiments with DMSO (vehicle control) (top), i14G1-10 (middle), and i14G1-12 (bottom). (4K) Scatter plots showing the translation efficiencies correlations between 5′UTR and CDS (Pearson's r >0.5) of all analyzed genes of two independent replicate experiments with i14G1-10 (left) and i14G1-12 (right).
Ribo-seq and TI-seq. HEK293T cells were grown in 10 cm culture dish until 80% confluence, and treated with DMSO, i14G1-10 ([…]), and i14G1-12 (10 μM). After 3 h, for TI-seq, cells were treated with 2 μg/ml harringtonine (Hrr) for 2 minutes followed by the addition of 100 μg/ml cycloheximide (CHX) for 5 minutes. For Ribo-seq cells were treated with 100 μg/ml cycloheximide (CHX) for 5 minutes. Thereafter, cells were lysed in polysome buffer. For both TI-seq and Ribo-seq, ribosome fractions were isolated using sucrose density centrifugation followed by Rnase I digestion. The total RNA was isolated using tri-reagent and used for high-throughput library preparation as described (Ingolia et al. 2012). The libraries were sequenced on the HiSeq2500 High-Output instrument (Illumina) for SR-60.
RNA-seq libraries. Total RNA was isolated from the lysates used for TI-seq and Ribo-seq, using Bio Tri RNA reagent. Total RNA was then cleaned up using Oligo d(T)25 Magnetic Beads (NEB 514195) to isolate mRNA. RNA-seq libraries prepared using a derivation of MARS-seq, produce expression libraries with two replicates of each treatment. ˜25 ng RNA was taken for first Reverse transcription reaction using Illumina barcoded RT1 primer. Resultant barcoded cDNA samples were subsequently pooled according to Ct values of Housekeeping gene (GAPDH) (Quality control 1). Pooled cDNA was treated with Exonuclease I to remove excess primers followed by Second strand synthesis using NEB SSS module enzyme mix. After that, in vitro transcription was performed using NEB T7 RNA Pol mix to generate RNA which was fragmented and ligated to an adaptor consisting RD2 using T4 RNA ligase I (NEB) followed by a second Reverse transcription reaction. The library was amplified using Kappa Hifi ready mix. The RNA libraries were sequenced using a high-throughput 75 bp kit (Illumina FC404-2005) on NEXTseq 500 sequencer. […]

Structure (SMILES)	reduction of parasite levels (parasitaemia) [1] [%]	ATF4 main ORF translation (HEK293T cells)	number of genes with translational downregulation of CDS (≥1.7 fold) (HEK293T cells) [genes]	number of genes with translational upregulation of CDS (HEK293T cells) [genes]	number of genes with upregulated 5′UTR translation (HEK293T cells) [genes]	translation efficiency of endogenous eIF1 (HEK293T cells)
O=C(/C=C/Sc1ccc(C(F)(F)F)cn1)c1ccccc1 [i14G1-10]	42	upregulated	320	255	806	upregulated
Cn1ccnc1S/C(=C/C=C(C#N)C#N)c1ccc(Cl)cc1 [i14G1-12]	69	upregulated	874	547	1207	upregulated
